Assay results: patent US20170218042A1, “METHODS OF ISOLATING T CELL RECEPTORS HAVING ANTIGENIC SPECIFICITY FOR A CANCER-SPECIFIC MUTATION” (The United State of America, as represented by the …, priority 2014, published 2017)

Test system: 3737-TIL
Assay: Co-culture of 3737-TIL with TMG-RNA-transfected autologous DCs; flow cytometry for activation markers 4-1BB and OX40
Format: cell-based, human
Method: APCs (DCs or B cells) were harvested, washed 1× with PBS, and then resuspended in Opti-MEM (Life Technologies) at 10-30×10^6 cells/ml. IVT RNA (4 μg or 8 μg) was aliquoted to the bottom of a 2 mm gap electroporation cuvette, and 50 μl or 100 μl of APCs were added directly to the cuvette. The final RNA concentration used in electroporations was thus 80 μg/ml. Electroporations were carried out using a BTX-830 square wave electroporator. DCs were electroporated with 150 V, 10 ms, and 1 pulse, and B cells were electroporated with 150 V, 20 ms, and 1 pulse. Transfection efficiencies using these settings were routinely between 70-90% as assessed with GFP RNA (data not shown). All steps were carried out at room temperature. Following electroporation, cells were immediately transferred to polypropylene tubes containing DC- or B-cell media supplemented with the appropriate cytokines. Transfected cells were incubated overnight (12-14 h) at 37° C., 5% CO2. Cells were washed 1× with PBS prior to use in co-culture assays.
When DCs were used as APCs, approximately 3.5×10^4 to 7×10^4 DCs were used per well of a 96-well flat or round-bottom plate. When B cells were used as APCs, approximately 2×10^5 cells were used per well of a 96-well round-bottom plate. In ELISPOT assays, 1×10^3 to 1×10^4 effector T cells were used per well, and in flow cytometry assays, 1×10^5 effector T cells were used per well. T cells were typically thawed and rested in IL-2 containing 50/50 media (3000 IU/ml IL-2) for two days and then washed with PBS (3×) prior to co-culture assays. All co-cultures were performed in the absence of exogenously added cytokines. For all assays, plate-bound OKT3 (0.1 μg/ml or 1 μg/ml) was used as a positive control.
Expression of the T-cell activation markers OX40 and 4-1BB was assessed by flow cytometry at approximately t=22-26 h post-stimulation. Briefly, cells were pelleted, washed with FACS buffer (1×PBS supplemented with 1% FBS and 2 mM EDTA), and then stained with the appropriate antibodies for approximately 30 min, at 4° C. in the dark. Cells were washed at least once with FACS buffer prior to acquisition on a BD FACSCanto II flow cytometer. All data were gated on live (PI negative), single cells.
The TMG constructs were then used as templates for the generation of in vitro transcribed (IVT) RNA. Each of these IVT TMG RNAs was then individually transfected into autologous APCs (DCs) followed by a co-culture with TIL to determine whether any of the processed and presented mutated antigens were recognized by TIL. It was observed that 3737-TIL were reactive to a mutated antigen present in TMG-1, but not TMG-2 or TMG-3 (FIG. 1A). […] Tables 4A and 4B show the percentage of 3737-TIL detected by flow cytometry as having the indicated phenotype following coculture with DCs cultured with the non-specific stimulator OKT3 or DCs transfected with green fluorescent protein (GFP) RNA, or the indicated tandem mini-gene (TMG) construct encoding the various mutations identified by whole-exomic sequencing. Mock-transfected cells were treated with transfection reagent only without addition of nucleic acid. Data were gated on live CD3+ cells.
3737-TIL were co-cultured with DCs transfected with TMG-1 or TMG-1 encoding the wild-type (wt) ERBB2IP reversion, and flow cytometry was used to assess OX40 and Vβ22 expression on CD4+ T cells at 24 hours post-stimulation. Plate-bound OKT3 stimulation was used as a positive control.

[1] = 3737-TIL CD4+ T cells, 24 hours post-stimulation
[2] = percentage of 3737-TIL after co-culture with transfected DCs or OKT3, gated on live CD3+ cells

For “OKT3: anti-CD3 antibody, non-specific stimulator, plate-bound positive control”, the “Vβ22+/OX40+” value [1] was 44%, the “Vβ22+/OX40−” value [1] was 6% and the “Vβ22−/OX40+” value [1] was 31%. The “Vβ22−/OX40−” value [1] was 19%, the “4-1BB+/CD4+” value [2] was 32% and the “4-1BB+/CD4−” value [2] was 41%. For the same substance, the “4-1BB−/CD4+” value [2] was 23%, the “4-1BB−/CD4−” value [2] was 4% and the “OX40+/CD4+” value [2] was 45%. For the same substance, the “OX40+/CD4−” value [2] was 6%, the “OX40−/CD4+” value [2] was 11% and the “OX40−/CD4−” value [2] was 38%.
